This is an account of results in US20110224231A1, “Novel Lactams as Beta Secretase Inhibitors” (Pfizer Inc., priority 2008, published 2011).

The assay concerns the target T1, soluble human BACE (Homo sapiens, UniProt P56817).
T1 construct: cells secreting human recombinant soluble BACE; made in house; conditioned medium
The assay is described as follows: BACE activity Cell Free Assay (ELISA of cleaved synthetic APP substrate). In kind it is biochemical. Here is the method: A synthetic APP substrate that can be cleaved by beta˜secretase and having N-terminal biotin is used to assay beta-secretase activity in the presence or absence of the inhibitory compounds. […] The substrate and test compounds are added to 384 well polypropylene plates. The reaction is initiated by the addition of soluble BACE enzyme to a final volume of 12.5 μL per well. The final assay conditions are: 0.001˜300 μM compound inhibitor, 0.05M sodium acetate (pH 4.5), 3 μM substrate, soluble human BACE, and 2% DMSO. Concentrated conditioned media from cells secreting human recombinant soluble BACE was titrated to provide a source of BACE enzyme. The cell media can be used as either a crude BACE prep or BACE can be purified using any number of techniques, including immobilized BACE inhibitor purification columns. The assay mixture is incubated for 1 hour at 37° C., and the reaction is quenched by the addition of an equal volume of 0.1M Tris, pH 8. Half of the quenched mix is incubated on clear streptavidin coated 384 well polystyrene plates for 1 hour. An ELISA is then performed using an in˜house antibody that specifically recognizes the new C˜terminus created after cleavage by BACE. […] (These polyclonal antibodies were raised in rabbits by immunizing with antigen comprised of six amino acid residues present at the carboxy terminus of the wild-type soluble APPbeta sequence (NH2-ISEVKM-COOH) or seven amino acid residues present at the carboxy terminus of the Swedish mutation at the beta cleavage site (NH2-EISEVNL˜COOH) conjugated to keyhole limpet hemacyanin by methods known to those skilled in the art.) A secondary anti˜species Horseradish Peroxidase (HRP) conjugated antibody is then utilized. The readout, following assay development with TMB substrate and quenching with 0.09M sulfuric acid, is absorbance at 450 nm.
On the technique in general: ELISA stands for enzyme-linked immunosorbent assay.

[1] abbreviates: Table 4, cell free, soluble human BACE, pH 4.5, 3 μM substrate, read-out: BACE Activity (Cell Free Assay IC50).
Where [2] appears, read: Table 6, cell free, soluble human BACE, pH 4.5, 3 μM substrate, read-out: BACE Activity (Cell Free Assay IC50).

Where a name gives a salt, the structure may show the parent alone. Read-outs that look alike come from different tables or passages of the source.

T1 sequence (P56817 46-457 limits assumed): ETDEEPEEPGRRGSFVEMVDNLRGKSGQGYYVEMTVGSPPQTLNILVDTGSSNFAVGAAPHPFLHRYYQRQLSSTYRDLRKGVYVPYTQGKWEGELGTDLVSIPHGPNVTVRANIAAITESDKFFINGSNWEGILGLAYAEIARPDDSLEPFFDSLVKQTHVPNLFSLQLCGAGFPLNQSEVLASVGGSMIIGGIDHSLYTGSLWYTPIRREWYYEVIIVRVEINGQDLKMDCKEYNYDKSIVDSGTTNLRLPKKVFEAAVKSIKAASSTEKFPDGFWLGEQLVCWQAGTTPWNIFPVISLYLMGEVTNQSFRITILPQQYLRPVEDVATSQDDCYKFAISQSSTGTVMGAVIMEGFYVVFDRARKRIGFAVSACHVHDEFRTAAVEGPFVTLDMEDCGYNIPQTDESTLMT

As for `Cc1cccc(N2C(=O)C=C[C@]23CCN(Cc2scnc2CC2CCC2)[C@@H](C)C3)n1` [#137, (5R,7S)-8-{[4-(cyclobutylmethyl)-1,3-thiazol-5-yl]methyl}-7-methyl-1-(6-methylpyridin-2-yl)-1,8-diazaspiro[4.5]dec-3-en-2-one], the IC50 – broadly, the midpoint of a concentration-inhibition curve – was in the range of 1 to 10 µM.

For `Cc1ccncc1-c1cccc(CN2CCC3(CCC(=O)N3c3cccc(F)c3)CC2C)c1` (racemic) [Example 51, Racemic (5R,7S),(5S,7R)-1-(3-fluorophenyl)-7-methyl-8-[3-(4-methylpyridin-3-yl)benzyl]-1,8-diazaspiro[4.5]decan-2-one], the IC50 lay within 10 to 100 µM.

`Cc1ccnc(N2C(=O)C=C[C@]23CCN(Cc2cccc(OC(C)C)c2)[C@@H](C)C3)c1` [#108] returned an IC50 of 1 to 10 µM.

On to `Cc1ccccc1-c1cccc(CN2CC[C@]3(CCC(=O)N3c3cccc(F)c3)C[C@@H]2C)c1` [Example 88, (5R,7S)˜1˜(3˜fluorophenyl)˜7˜methyl˜8˜[(2′˜methylbiphenyl˜3˜yl)methyl]˜1,8˜diazaspiro[4.5]decan˜2˜one hydrochloride], for which the IC50 fell in the range of 1 to 10 µM.

Regarding `CC1CC2(CCC(=O)N2c2cccc(F)c2)CCN1Cc1cccc(Oc2ccccc2)c1` (racemic) [Example 52, Racemic (5R,7S),(5S,7R)-1-(3-fluorophenyl)-7-methyl-8-(3-phenoxybenzyl)-1,8-diazaspiro[4.5]decan-2-one], the concentration for half-maximal inhibition (IC50) was 10 to 100 µM.

`CCNc1ccc(CN2CCC3(C=CC(=O)N3c3cccc(F)c3)CC2C)cn1` (racemic) [Example 31, Racemic (5R,7S),(5S,7R)-8-{[6-(ethylamino)pyridin-3-yl]methyl}-1-(3-fluorophenyl)-7-methyl-1,8-diazaspiro[4.5]dec-3-en-2-one] returned an IC50 of 100 to 300 µM.

`Cc1nc(N2C(=O)C=C[C@]23CCN(Cc2cccc(OC(C)C)c2)[C@@H](C)C3)cs1` [#121] had an IC50 of 1 to 10 µM.

`CC1CC2(CCC(=O)N2c2cccc(F)c2)CCN1Cc1ccc(O)c(C#N)c1` (racemic) [Example 41, Racemic (5R,7S),(5S,7R)-1(3-fluorophenyl)-7-methyl-2-oxo-1,8-diazaspiro[4.5]dec-8-yl]methyl}-2-hydroxybenzonitrile] had an IC50 of 10 to 100 µM.

In turn, `CC1CC2(CCC(=O)N2c2cccc(F)c2)CCN1Cc1c[nH]c2ccc(C#N)cc12` (racemic) [Example 76, Racemic 3-{[(5R,7S),(5S,7R)-1-(3-fluorophenyl)-7-methyl-2-oxo-1,8-diazaspiro[4.5]dec-8-yl]methyl}-1H-indole-5-carbonitrile] gave an IC50 of 100 to 300 µM.

`Cc1ccncc1-c1cccc(CN2CCC3(C=CC(=O)N3c3cccc(F)c3)CC2C)c1` (racemic) [Example 21, Racemic (5R,7S),(5S,7R)-1-(3-fluorophenyl)-7-methyl-8-[3-(4-methylpyridin-3-yl)benzyl]-1,8-diazaspiro[4.5]dec-3-en-2-one] returned an IC50 of 1 to 10 µM.

`COc1cc(CN2CCC3(C=CC(=O)N3c3cccc(F)c3)CC2C)ccc1O` (racemic) [Example 12, Racemic (5R,7S),(5S,7R)-1-(3-fluorophenyl)-8-(4-hydroxy-3-methoxybenzyl)-7-methyl-1,8-diazaspiro[4.5]dec-3-en-2-one] had an IC50 of 1 to 10 µM.

Consider `CCCn1nccc1CN1CC[C@]2(C=CC(=O)N2c2cnccn2)C[C@@H]1C` [#133, (5R,7S)-7-methyl-8-[(1-propyl-1H-pyrazol-5-yl)methyl]-1-pyrazin-2-yl-1,8-diazaspiro[4.5]dec-3-en-2-one], for which the IC50 is 100 to 300 µM.

`CC1CC2(CCC(=O)N2c2cccc(F)c2)CCN1Cc1cccc(-c2cccnc2)c1` (racemic) [Example 49, Racemic (5R,7S),(5S,7R)-1-(3-fluorophenyl)-7-methyl-8-(3-pyridin-3-ylbenzyl)-1,8-diazaspiro[4.5]decan-2-one] registered an IC50 of 100 to 300 µM.

Regarding `CC(C)Oc1cccc(CN2CC[C@]3(C=CC(=O)N3c3cccc(C(F)(F)F)n3)C[C@@H]2C)c1` [#125], the half-inhibitory concentration (IC50) under setting [1] lay in the range of 10 to 100 µM.

`COC(=O)Nc1ccc(CN2CCC3(CCC(=O)N3c3cccc(F)c3)CC2C)cc1` (racemic) [Example 75, Racemic methyl (4-{[(5R,7S),(5S,7R)-1-(3-fluorophenyl)-7-methyl-2-oxo-1,8-diazaspiro[4.5]dec-8-yl]methyl}phenyl)carbamate] gave an IC50 of 100 to 300 µM.

Take `CC1CC2(C=CC(=O)N2c2cccc(F)c2)CCN1Cc1c[nH]c(-c2ccccc2)n1` (racemic) [Example 83, Racemic (5R,7S),(5S,7R)-1-(3-fluorophenyl)-7-methyl-8-[(2-phenyl-1H-imidazol-4-yl)methyl]-1,8-diazaspiro[4.5]dec-3-en-2-one]: the IC50 lay within 100 to 300 µM.

As for `CC(C)Oc1cccc(CN2CC[C@]3(C=CC(=O)N3c3cccnc3)C[C@@H]2C)c1` [#111], the IC50 fell in the range of 10 to 100 µM.

Regarding `CCCN1C(=O)C=C[C@]12CCN(Cc1cccc(OC(C)C)c1)[C@@H](C)C2` [Example @94, (5R,7S)˜8˜(3˜isopropoxybenzyl)˜7˜methyl˜1˜propyl˜1,8-diazaspiro[4.5]dec˜3˜en˜2˜one], under setting [2], the IC50 is 100 to 300 µM.

For `CCCOc1cccc(CN2CCC3(C=CC(=O)N3c3cccc(F)c3)CC2C)c1` (racemic) [Example 17, Racemic (5R,7S),(5S,7R)-1-(3-fluorophenyl)-7-methyl-8-(3-propoxybenzyl)-1,8-diazaspiro[4.5]dec-3-en-2-one], the IC50 was 10 to 100 µM.

In turn, `Cc1ccsc1-c1cc(CN2CC[C@]3(C=CC(=O)N3c3cccc(F)c3)C[C@@H]2C)ccc1O` [#212] gave an IC50 of 0.001 to 1 µM.

With `CC(C)Oc1cccc(CN2CC[C@]3(C=CC(=O)N3C3CC3)C[C@@H]2C)c1` [Example @95, (5R,7S)-1-Cyclopropyl-8-(3-isopropoxybenzyl)-7-methyl-1,8-diazaspiro[4.5]dec-3-en-2˜one, trifluoroacetate salt], the IC50 under setting [2] lay within 100 to 300 µM.

In turn, `C[C@H]1C[C@@]2(C=CC(=O)N2c2cnccn2)CCN1Cc1ccnn1CC(F)(F)F` [#134, (5R,7S)-7-methyl-1-pyrazin-2-yl-8-[(1-(2,2,2-trifluoroethyl)-1H-pyrazol-5-yl]methyl]-1,8-diazaspiro[4.5]dec-3-en-2-one] registered an IC50 of 100 to 300 µM.

Take `CC(C)COc1cccc(CN2CCC3(C=CC(=O)N3c3cccc(F)c3)CC2C)c1` (racemic) [Example 18, Racemic (5R,7S),(5S,7R)-1-(3-fluorophenyl)-8-(3-isobutoxybenzyl)-7-rnethyl-1,8-diazaspiro[4.5]dec-3-en-2-one]: the IC50 was 10 to 100 µM.

For the compound `CC1CC2(C=CC(=O)N2c2cccc(F)c2)CCN1Cc1cccc(S(=O)(=O)N2CCCC2)c1` (racemic) [Example 4, Racemic (5R,7S),(5S,7R)-1-(3-fluorophenyl)-7-methyl-8-[3-(pyrrolidin-1-ylsulfonyl)benzyl]-1,8-diazaspiro[4.5]dec-3-en-2-one], the IC50 lay in the range of 10 to 100 µM.

Compound `CCCNc1ccc(CN2CCC3(C=CC(=O)N3c3cccc(F)c3)CC2C)cn1` (racemic) [Example 32, Racemic (5R,7S),(5S,7R)-1-(3-fluorophenyl)-7-methyl-8-{[6-(propylamino)pyridin-3-yl]methyl}-1,8-diazaspiro[4.5]dec-3-en-2-one] came in with an IC50 of 100 to 300 µM.

On to `Cc1cncc(N2C(=O)C=C[C@]23CCN(Cc2cccc(OC(C)C)c2)[C@@H](C)C3)n1` [#126], for which, under setting [1], the IC50 was in the range of 10 to 100 µM.

For `CC1CC2(C=CC(=O)N2c2cccc(F)c2)CCN1Cc1cccc(O)n1` (racemic) [Example 6, Racemic (5R,7S),(5S,7R)-1-(3-fluorophenyl)-8-[(6-hydroxypyridin-2-yl)methyl]-7-methyl-1,8-diazaspiro[4.5]dec-3-en-2-one], the IC50 lay within 100 to 300 µM.

Take `CC1CC2(C=CC(=O)N2c2cccc(F)c2)CCN1Cc1ccc(O)c(Cl)c1` (racemic) [Example 15, Racemic (5R,7S),(5S,7R)-8-(3-chloro-4-hydroxybenzyl)-1-(3-fluorophenyl)-7-methyl-1,8-diazaspiro[4.5]dec-3-en-2-one]: the IC50 lay in the range of 1 to 10 µM.

Compound `Cc1ccc(Oc2cccc(CN3CCC4(C=CC(=O)N4c4cccc(F)c4)CC3C)c2)cc1` (racemic) [Example 2, Racemic (5R,7S),(5S,7R)-1-(3-fluorophenyl)-7-methyl-8-[3-(4-methylphenoxy)benzyl]-1,8-diazaspiro[4.5]dec-3-en-2-one] had an IC50 of 1 to 10 µM.

Take `CC(C)Oc1cccc(CN2CC[C@]3(C=CC(=O)N3c3ccc(Cl)cn3)C[C@@H]2C)c1` [#104]: the IC50 under setting [1] is 10 to 100 µM.

The compound `CC1CC2(CCC(=O)N2c2cccc(F)c2)CCN1Cc1cccc(S(=O)(=O)N2CCCC2)c1` (racemic) [Example 36, Racemic (5R,7S),(5S,7R)-1-(3-fluorophenyl)-7-methyl-8-[3-(pyrrolidin-1-ylsulfonyl)benzyl]-1,8-diazaspiro[4.5]decan-2-one] had an IC50 of 100 to 300 µM.
